Experimental findings from article PMC7726319, “Discovery of 5,5′-Methylenedi-2,3-Cresotic Acid as a Potent Inhibitor of the Chemotactic Activity of the HMGB1·CXCL12 Heterocomplex Using Virtual Screening and NMR Validation” (Frontiers in Chemistry, 2020) are described below.

For the assay, the target named is T1, HMGB1 (Mus musculus, UniProt P63158).
T1 construct: 6His-tagged form for MST
T1 sequence (P63158 2-215): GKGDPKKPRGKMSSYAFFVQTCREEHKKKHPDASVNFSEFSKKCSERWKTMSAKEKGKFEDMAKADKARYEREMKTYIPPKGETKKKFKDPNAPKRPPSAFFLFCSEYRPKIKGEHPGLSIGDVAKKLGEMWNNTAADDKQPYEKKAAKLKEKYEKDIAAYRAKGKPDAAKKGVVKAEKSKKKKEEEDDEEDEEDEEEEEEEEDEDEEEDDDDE
Kind of assay: 1H-15N HSQC NMR titration (CSP fit). The class given is binding. To be noted: read-out: apparent Kd.

A value given as a limit tells only on which side of the number the result lay.

In the case of `O=C(/C=C/c1ccc(O)c(O)c1)O[C@H](Cc1ccc(O)c(O)c1)C(=O)O` [compound 6, rosmarinic acid], the Kd was above 10 mM.
